This note sets out measurements from patent publication US12606533B2, “3-phenylpropylamine derivative” (DAIICHI SANKYO COMPANY, LIMITED, priority 2023, dated 2026).

Molecules are shown by their SMILES. Where two headings read alike, the source gives them in different places.

One experiment deals with T1, SF-1 (Homo sapiens, UniProt Q13285).
T1 construct: NCI-H295R SF-1-HiBiT cells with HiBiT tag knocked in at the endogenous SF1 locus; host or cells: NCI-H295R SF-1-HiBiT (knock-in at endogenous locus)
The experiment can be described thus: SF1 degradation induction in NCI-H295R SF-1-HiBiT cells (HiBiT DC50). Format: cell-based. The settings on record: 24 hr, concentration that induces 50% degradation of SF-1. The protocol:
NCI-H295R SF-1-HiBiT cells were seeded in a 384-well plate (Thermo Fisher Scientific Inc.) at 1×10^4 cells/50 μL/well and cultured at 37° C. in a 5% CO2 incubator for 24 hr. DMSO solutions of each compound were serially diluted with DMSO using a D300e Digital Dispenser (TECAN), added to a 384-well plate, and cultured in a 5% CO2 incubator at 37° C. for 24 hr. […] After completion of culture, the medium was discarded, and Nano-Glo (registered trade mark) HiBiT Lytic Detection System (Promega, Cat. No. N3040) was added at 20 μL/well and stirred with a plate mixer. Luminescence signals were then detected using a multimode plate reader (EnVision Xcite, PerkinElmer). The SF-1 protein degradation rate was calculated from the amount of luminescence (C) in the compound-free group and the amount of luminescence (T) in the compound-added group, based on the following formula.
The obtained data was analyzed using GraphPad Prism9 (GraphPad Software Inc.) or Genedata Screener (Genedata AG) to calculate the concentration that induces 50% degradation of SF-1 (DC50 value).

The next experiment has as its system NCI-H295R cells. The experiment can be described thus: Proliferation inhibitory action on NCI-H295R (CellTiter-Glo, 7 days). It is filed as cell-based, human. As to the method:
DMSO solutions of each compound were serially diluted with DMSO using a D300e Digital Dispenser (TECAN), and added to a 384-well plate (Thermo Fisher Scientific Inc.). NCI-H295R cells were seeded in a 384-well plate at 2×10^3 cells/40 μL/well and cultured for 7 days in a 37° C., 5% CO2 incubator. […] On the first day of culture (day 0) and the seventh day of culture (day 7), 10 μL/well of CellTiter-Glo (registered trademark) 2.0 Assay (Promega) was added, and the luminescence signal was detected using a multimode plate reader (EnVision, PerkinElmer). The cell proliferation rate was calculated from the luminescence amount on the day of compound addition (CO), the luminescence amount of the compound-free group after 7 days of culture (C7), and the luminescence amount of the compound-added group (T7), based on the following formula.

For the compound `COc1ccc([C@]2(CCN(Cc3ccc(C4=CC[C@H](C(=O)N5CCC(Nc6ccc7c8c6CCCn8c(=O)n7C6CCC(=O)NC6=O)CC5)CC4)c(F)c3)CC(C)(C)C(F)(F)F)CCOC(C)(C)C2)cc1` (single isomer, unassigned) [CG1, (3S) or (3R)-{7-[(1-{[(4R)-2′-Fluoro-4′-{[{2-[(4R)-4-(4-methoxyphenyl)-2,2-dimethyltetrahydro-2H-pyran-4-yl]ethyl}(3,3,3-trifluoro-2,2-dimethylpropyl)amino]methyl}-2,3,4,5-tetrahydro[biphenyl]-4-yl]carbonyl}piperidin-4-yl)amino]-2-oxo-5,6-dihydro-4H-imidazo[4,5,1-ij]quinolin-1(2H)-yl}piperidine-2,6-dione], the DC50 on SF-1 amounted to 1.8 nM. Also, growth with NCI-H295R cells was halved (GI50) at 18 nM.

Consider `COc1ccc([C@]2(CCN(Cc3ccc(C4=CC[C@H](C(=O)N5CCC(Nc6ccc7c8c6OCCn8c(=O)n7C6CCC(=O)NC6=O)CC5)CC4)c(F)c3)CC(C)(C)C(F)(F)F)CCOC(C)(C)C2)cc1` (stereo partly drawn) [BM10, 3-{7-[(1-{[(4R)-2′-Fluoro-4′-{[{2-[(4R)-4-(4-methoxyphenyl)-2,2-dimethyltetrahydro-2H-pyran-4-yl]ethyl)(3,3,3-trifluoro-2,2-dimethylpropyl)amino]methyl}-2,3,4,5-tetrahydro[biphenyl]-4-yl]carbonyl}piperidin-4-yl)amino]-2-oxo-4,5-dihydroimidazo[1,5,4-de][1,4]benzoxazin-1(2H)-yl}piperidine-2,6-dione], for which the DC50 at SF-1 came out at 2.2 nM. In addition, halving of growth in the experiment with NCI-H295R cells (Homo sapiens, NCI-H295R, 168 h) (GI50) required 22 nM.

As for `COc1ccc([C@]2(CCN(Cc3ccc(OC4CC5(CCN(CC(=O)Nc6cccc7c6n(C)c(=O)n7C6CCC(=O)NC6=O)CC5)C4)cc3)CC(C)(C)C(F)(F)F)CCOC(C)(C)C2)cc1` (stereo partly drawn) [Example AD1, N-[1-(2,6-Dioxopiperidin-3-yl)-3-methyl-2-oxo-2,3-dihydro-1H-benzimidazol-4-yl]-2-[2-(4-{[{2-[(4R)-4-(4-methoxyphenyl)-2,2-dimethyltetrahydro-2H-pyran-4-yl]ethyl}(3,3,3-trifluoro-2,2-dimethylpropyl)amino]methyl}phenoxy)-7-azaspiro[3.5]nonan-7-yl]acetamide], on SF-1, it took 6.9 nM to reach half-maximal degradation (DC50). Besides, the GI50 with NCI-H295R cells (Homo sapiens, NCI-H295R, 168 h) was 47 nM.

`COc1ccc([C@]2(CCN(Cc3ccc4nn(C5CC6(CCN(CC(=O)Nc7ccc8c(c7)n(C)c(=O)n8C7CCC(=O)NC7=O)CC6)C5)cc4c3)CC(C)(C)C(F)(F)F)CCOC(C)(C)C2)cc1` (stereo partly drawn) [AZ8, N-[1-(2,6-Dioxopiperidin-3-yl)-3-methyl-2-oxo-2,3-dihydro-1H-benzimidazol-5-yl]-2-[2-(5-{[{2-[(4R)-4-(4-methoxyphenyl)-2,2-dimethyltetrahydro-2H-pyran-4-yl]ethyl}(3,3,3-trifluoro-2,2-dimethylpropyl)amino]methyl}-2H-indazol-2-yl)-7-azaspiro[3.5]nonan-7-yl]acetamide]: at SF-1, half-maximal degradation (DC50) was put at 7 nM. The GI50 with NCI-H295R cells (Homo sapiens, NCI-H295R, 168 h) is 28 nM.

For the compound `COc1ccc([C@]2(CCN(Cc3ccc(C4=CCC(C(=O)N5CCN(Cc6ccc7c(c6)n(C)c(=O)n7C6CCC(=O)NC6=O)CC5)CC4)cc3F)CC(C)(C)C(F)(F)F)CCOC(C)(C)C2)cc1` (stereo partly drawn) [AT3, 3-[5-({4-[(3′-Fluoro-4′-{[{2-[(4R)-4-(4-methoxyphenyl)-2,2-dimethyltetrahydro-2H-pyran-4-yl]ethyl}(3,3,3-trifluoro-2,2-dimethylpropyl)amino]methyl}-2,3,4,5-tetrahydro[biphenyl]-4-yl)carbonyl]piperazin-1-yl}methyl)-3-methyl-2-oxo-2,3-dihydro-1H-benzimidazol-1-yl]piperidine-2,6-dione], the DC50 at SF-1 stood at 7.7 nM. In addition, in the experiment on NCI-H295R cells (Homo sapiens, NCI-H295R, 168 h), halving of growth (GI50) required 45 nM.

`COc1ccc([C@]2(CCN(Cc3ccc(C4=CC[C@H](C(=O)N5CCC(Nc6ccc7c(c6F)n(C)c(=O)n7C6CCC(=O)NC6=O)CC5)CC4)c(F)c3)CC(C)(C)C(F)(F)F)CCOC(C)(C)C2)cc1` (stereo partly drawn) [BX6, 3-{4-Fluoro-5-[(1-{[(4R)-2′-fluoro-4′-{[{2-[(4R)-4-(4-methoxyphenyl)-2,2-dimethyltetrahydro-2H-pyran-4-yl]ethyl}(3,3,3-trifluoro-2,2-dimethylpropyl)amino]methyl}-2,3,4,5-tetrahydro[biphenyl]-4-yl]carbonyl}piperidin-4-yl)amino]-3-methyl-2-oxo-2,3-dihydro-1H-benzimidazol-1-yl}piperidine-2,6-dione] registered a DC50 on SF-1 of 7.1 nM. The compound also came in with a GI50 in the experiment on NCI-H295R cells (Homo sapiens, NCI-H295R, 168 h) of 52 nM.

Compound `COc1ccc([C@]2(CCN(Cc3ccc(C4=CC[C@@H](C(=O)N5CCC(Nc6ccc7c8c6CCCn8c(=O)n7C6CCC(=O)NC6=O)CC5)CC4)c(F)c3)CC(C)(C)C(F)(F)F)CCOC(C)(C)C2)cc1` (stereo partly drawn) [BL4, 3-{7-[(1-{[(4S)-2′-Fluoro-4′-{[{2-[(4R)-4-(4-methoxyphenyl)-2,2-dimethyltetrahydro-2H-pyran-4-yl]ethyl)(3,3,3-trifluoro-2,2-dimethylpropyl)amino]methyl}-2,3,4,5-tetrahydro[biphenyl]-4-yl]carbonyl}piperidin-4-yl)amino]-2-oxo-5,6-dihydro-4H-imidazo[4,5,1-ij]quinolin-1(2H)-yl}piperidine-2,6-dione] gave a DC50 on SF-1 of 3.1 nM. Also, the GI50 with NCI-H295R cells (Homo sapiens, NCI-H295R, 168 h) came to 43 nM.

At SF-1, `COc1ccc([C@]2(CCN(Cc3ccc(C4=CCC(CC(=O)NCCNc5ccc6c(c5)n(C)c(=O)n6C5CCC(=O)NC5=O)CC4)cc3)CC(C)(C)C(F)(F)F)CCOC(C)(C)C2)cc1` (stereo partly drawn) [Example Y6, N-(2-{[1-(2,6-Dioxopiperidin-3-yl)-3-methyl-2-oxo-2,3-dihydro-1H-benzimidazol-5-yl]amino}ethyl)-2-(4′-{[{2-[(4R)-4-(4-methoxyphenyl)-2,2-dimethyltetrahydro-2H-pyran-4-yl]ethyl}(3,3,3-trifluoro-2,2-dimethylpropyl)amino]methyl}-2,3,4,5-tetrahydro[biphenyl]-4-yl)acetamide] had a DC50 of 12 nM. The GI50 in the experiment on NCI-H295R cells (Homo sapiens, NCI-H295R, 168 h) is 199 nM.

Compound `COc1ccc([C@]2(CCN(Cc3ccc(OC4CC5(CCN(CC(=O)Nc6ccc7c(c6)n(C)c(=O)n7C6CCC(=O)NC6=O)CC5)C4)cc3)CC(C)(C)C(F)(F)F)CCOC(C)(C)C2)cc1` (stereo partly drawn) [Example AE1, N-[1-(2,6-Dioxopiperidin-3-yl)-3-methyl-2-oxo-2,3-dihydro-1H-benzimidazol-5-yl]-2-[2-(4-{[{2-[(4R)-4-(4-methoxyphenyl)-2,2-dimethyltetrahydro-2H-pyran-4-yl]ethyl}(3,3,3-trifluoro-2,2-dimethylpropyl)amino]methyl}phenoxy)-7-azaspiro[3.5]nonan-7-yl]acetamide] registered a DC50 at SF-1 of 8.5 nM. This compound gave a GI50 in the experiment on NCI-H295R cells (Homo sapiens, NCI-H295R, 168 h) of 40 nM.

`COc1ccc([C@]2(CCN(Cc3ccc(C4=CCC(C(=O)N5CCN(Cc6ccc7c(c6)n(C)c(=O)n7C6CCC(=O)NC6=O)CC5)CC4)c(C)c3)CC(C)(C)C(F)(F)F)CCOC(C)(C)C2)cc1` (stereo partly drawn) [AS7, 3-[5-({4-[(4′-{[{2-[(4R)-4-(4-Methoxyphenyl)-2,2-dimethyltetrahydro-2H-pyran-4-yl]ethyl)(3,3,3-trifluoro-2,2-dimethylpropyl)amino]methyl}-2′-methyl-2,3,4,5-tetrahydro[biphenyl]-4-yl)carbonyl]piperazin-1-yl}methyl)-3-methyl-2-oxo-2,3-dihydro-1H-benzimidazol-1-yl]piperidine-2,6-dione] returned a DC50 on SF-1 of 4.1 nM. This compound registered a GI50 with NCI-H295R cells (Homo sapiens, NCI-H295R, 168 h) of 56 nM.

At SF-1, `COc1ccc([C@]2(CCN(Cc3ccc(C4=CCC(C(=O)N5CCN(Cc6ccc7c(c6)n(C)c(=O)n7C6CCC(=O)NC6=O)CC5)CC4)c(F)c3F)CC(C)(C)C(F)(F)F)CCOC(C)(C)C2)cc1` (stereo partly drawn) [AV2, 3-[5-({4-[(2′,3′-Difluoro-4′-{[{2-[(4R)-4-(4-methoxyphenyl)-2,2-dimethyltetrahydro-2H-pyran-4-yl]ethyl}(3,3,3-trifluoro-2,2-dimethylpropyl)amino]methyl}-2,3,4,5-tetrahydro[biphenyl]-4-yl)carbonyl]piperazin-1-yl}methyl)-3-methyl-2-oxo-2,3-dihydro-1H-benzimidazol-1-yl]piperidine-2,6-dione] showed a DC50 of 7.4 nM. The compound also came in with a GI50 in the experiment with NCI-H295R cells (Homo sapiens, NCI-H295R, 168 h) of 61 nM.

The compound `COc1ccc([C@]2(CCN(Cc3ccc(C4=CCC(CN5CCN(C(=O)c6cc7c(cn6)n(C6CCC(=O)NC6=O)c(=O)n7C)CC5)CC4)cc3)CC(C)(C)C(F)(F)F)CCOC(C)(C)C2)cc1` (stereo partly drawn) [BJ6, 3-[6-({4-[(4′-{[{2-[(4R)-4-(4-Methoxyphenyl)-2,2-dimethyltetrahydro-2H-pyran-4-yl]ethyl}(3,3,3-trifluoro-2,2-dimethylpropyl)amino]methyl}-2,3,4,5-tetrahydro[biphenyl]-4-yl)methyl]piperazin-1-yl}carbonyl)-1-methyl-2-oxo-1,2-dihydro-3H-imidazo[4,5-c]pyridin-3-yl]piperidine-2,6-dione] gave a DC50 at SF-1 of 17 nM. This compound also registered a GI50 in the experiment on NCI-H295R cells (Homo sapiens, NCI-H295R, 168 h) of 97 nM.
